US20250360167A1 (Keryx Biopharmaceuticals, Inc., priority 2013, published 2025)

Assays:
Type in all cases: in vivo, human
hemoglobin = assay: Phase 3 trial (Example 1): hemoglobin; parameters: Hemoglobin, Mean / Hemoglobin, Median / Hemoglobin, Change from Baseline, Mean / Hemoglobin, Change from Baseline, Median / Hemoglobin, LS Mean: unit not given here; details: for Hemoglobin, Mean / Hemoglobin, Median / Hemoglobin, LS Mean / Hemoglobin, Change from Baseline, Mean / Hemoglobin, Change from Baseline, Median / Hemoglobin, Treatment Differences, LS Mean (KRX-0502) − LS Mean (control), (SE): Table 17
Source text: Complete Blood Count (CBC) (white blood cell [WBC] count, white blood cell types [WBC differential], red blood cell [RBC] count, hematocrit [HCT], hemoglobin [Hgb], red blood cell indices, platelet [thrombocyte] count) was done at the Randomization Visit (Visit 4); at Visits 11 (Week 12), 14 (Week 24), 17 (Week 36), 20 (Week 48), and 21 (Week 52) of the 52-week Safety Assessment Period; and at Visit 25 (Week 56) of the Efficacy Assessment Period.

[1] = Phase 3 trial (Example 1): cumulative IV iron intake to Week 52
Protocol: Laboratory measurements were conducted throughout the study to assess safety and efficacy. The dose and specific IV iron preparation administered (if necessary) were at the discretion of the PI. Oral iron therapy was not permitted. Calcium-containing drugs were not permitted if given within two hours of food ingestion (calcium-containing drugs were permitted two hours or more prior to or following food ingestion or at bedtime for the purpose of raising the serum calcium). No Vitamin C supplements were permitted. Patients were allowed to take daily water soluble vitamins that include a small amount of Vitamin C (e.g., Centrum, Nephrocaps, Renaphro), but those patients were instructed to take them two hours or more prior to or following food ingestion or at bedtime. IV iron therapy was not permitted if the ferritin level is >1000 micrograms/L or the TSAT is >30%. If it was deemed in the patient's best interest to receive IV iron outside these parameters, the Clinical Coordinating Center (CCC) was consulted, and when approved and documented, was not considered a protocol exception.
The cumulative IV iron intake from randomization to Week 52 will be compared between treatment groups. This variable will be similarly analyzed as the primary efficacy variable using ANCOVA method. The two-sided 95% confidence intervals of treatment differences for all above comparisons will be presented.

[2] = Phase 3 trial (Example 1): hospitalizations, cardiac severe adverse events
Protocol: Safety was assessed by recording and monitoring adverse events, concomitant medication use, physical examinations, and sequential blood by treatment assignment. Rates of adverse events were summarized overall and by organ system class, preferred term, severity, and suspected relationship to study drug by treatment assignment. AEs were summarized for the Washout Period, Safety Assessment Period, and Efficacy Assessment Period separately by treatment assignment. The changes from baseline in laboratory parameters over time were summarized by treatment assignment.

[3] = Phase 2 trial (Example 2): treatment failures; details: two consecutive visits; 12-week treatment period
Protocol: If a subject has a serum phosphorus ≥6.0 mg/dL for at least two visits in a row during the 12-week treatment period, the subject is considered a treatment failure, stops study drug and exits the study.
The use of IV iron and erythropoietin stimulating agents (ESAs) is not permitted during the two-week washout and 12-week treatment periods. If a subject's hemoglobin level (Hgb) is <9.0 g/dL during the two-week washout, the subject is a screen failure. If a subject's Hgb is <9.0 g/dL for at least two visits in a row during the 12-week treatment period, the subject is considered a treatment failure, stops study drug and exits the study.
Patients were discontinued from the study if they had hemoglobin measurements <9.0 g/dL on two consecutive visits or serum phosphorus measurements ≥6.0 mg/dL on two consecutive visits following randomization.

[4] = Day 0 Baseline, Safety Assessment Period
[5] = Method 1 to Handle Overlapping Doses, Table 19
[6] = Active Control n = 149, Ferric Citrate n = 289
[7] = Ferric Citrate vs Active Control
[8] = percent of patients, Ferric Citrate N = 289, Active Control N = 149

Substance: iron (+3), x (1, 2, 3-propanetricarboxylic acid, 2-hydroxy-), y (H2O) [KRX-0502]
- Mean Hemoglobin, LS Mean Difference from Active Control Group at Week 52 (hemoglobin; ANCOVA, Table E): 0.4 g/dL
- Mean Hemoglobin (hemoglobin; Baseline (Day 0), Table E): 11.6 g/dL
- Hemoglobin, Mean (hemoglobin; [4]): 11.61
- Hemoglobin, Median (hemoglobin; [4]): 11.45
- Mean Hemoglobin, Change from Baseline at Week 52 (hemoglobin; Table E): -0.2 g/dL
- Hemoglobin, LS Mean (hemoglobin; Week 12, ANCOVA): 11.83
- Hemoglobin, Change from Baseline, Mean (hemoglobin; Week 12): 0.19
- Hemoglobin, Change from Baseline, Median (hemoglobin; Week 12): 0.10
- Hemoglobin, Mean (hemoglobin; Week 12): 11.82
- Hemoglobin, Median (hemoglobin; Week 12): 11.70
- Hemoglobin, Treatment Differences, LS Mean (KRX-0502) − LS Mean (control), (SE) (hemoglobin; Week 12): 0.30 (0.14)
- Hemoglobin, LS Mean (hemoglobin; Week 24, ANCOVA): 11.56
- Hemoglobin, Change from Baseline, Mean (hemoglobin; Week 24): −0.08
- Hemoglobin, Change from Baseline, Median (hemoglobin; Week 24): −0.10
- Hemoglobin, Mean (hemoglobin; Week 24): 11.55
- Hemoglobin, Median (hemoglobin; Week 24): 11.30
- Hemoglobin, Treatment Differences, LS Mean (KRX-0502) − LS Mean (control), (SE) (hemoglobin; Week 24): 0.12 (0.13)
- Hemoglobin, LS Mean (hemoglobin; Week 36, ANCOVA): 11.55
- Hemoglobin, Change from Baseline, Mean (hemoglobin; Week 36): −0.08
- Hemoglobin, Change from Baseline, Median (hemoglobin; Week 36): −0.10
- Hemoglobin, Mean (hemoglobin; Week 36): 11.54
- Hemoglobin, Median (hemoglobin; Week 36): 11.20
- Hemoglobin, Treatment Differences, LS Mean (KRX-0502) − LS Mean (control), (SE) (hemoglobin; Week 36): 0.27 (0.14)
- Hemoglobin, LS Mean (hemoglobin; Week 48, ANCOVA): 11.52
- Hemoglobin, Change from Baseline, Mean (hemoglobin; Week 48): −0.12
- Hemoglobin, Change from Baseline, Median (hemoglobin; Week 48): −0.20
- Hemoglobin, Mean (hemoglobin; Week 48): 11.50
- Hemoglobin, Median (hemoglobin; Week 48): 11.20
- Hemoglobin, Treatment Differences, LS Mean (KRX-0502) − LS Mean (control), (SE) (hemoglobin; Week 48): 0.30 (0.14)
- Hemoglobin, LS Mean (hemoglobin; Week 52, ANCOVA): 11.44
- Mean Hemoglobin (hemoglobin; Week 52, LOCF, Table E): 11.4 g/dL
- Hemoglobin, Change from Baseline, Mean (hemoglobin; Week 52): −0.20
- Hemoglobin, Change from Baseline, Median (hemoglobin; Week 52): −0.20
- Hemoglobin, Mean (hemoglobin; Week 52): 11.42
- Hemoglobin, Median (hemoglobin; Week 52): 11.20
- Hemoglobin, Treatment Differences, LS Mean (KRX-0502) − LS Mean (control), (SE) (hemoglobin; Week 52): 0.36 (0.14)
- Average Daily IV iron intake based on the Cumulative IV iron intake to week 52 (Visit 4-21), Mean [1, 5]: 2.96
- Average Daily IV iron intake based on the Cumulative IV iron intake to week 52 (Visit 4-21), Median [1, 5]: 1.86
- mean reduction in average cumulative IV iron intake ([1]; administered over a period of 52 weeks, stated as embodiment): 51.6%
- Average Hospitalizations per Subject [2, 6]: 0.63
- Subjects with One or More Hospitalizations, % of Study Subjects [2, 6]: 34.6%
- Total Hospitalizations [2, 6]: 181
- Average Hospitalizations per Subject, % Improvement [2, 7]: 24.1%
- Average Hospitalizations per Subject, Difference [2, 7]: −0.20
- Subjects with One or More Hospitalizations, Relative % Difference ([2]; Ferric Citrate vs Active Control, p = 0.024): −24.2%
- hospitalizations related to cardiac severe adverse events ([2]; as compared to Active Control): able to reduce hospitalizations related to cardiac severe adverse events
- Subjects with One or More Hospitalizations ([2]; number of subjects, Active Control n = 149, Ferric Citrate n = 289): 100
- Cardiac Disorders, % [2, 8]: 4.8%
- Gastrointestinal Disorders, % [2, 8]: 6.2%
- Infections, % [2, 8]: 12.1%
- Treatment Failures (n), Hemoglobin <9.0 g/dL [3]: 1
- Treatment Failures (n), Serum Phosphorus ≥6.0 mg/dL [3]: 0
